Results on 3 compounds are retold here after patent publication US20260077277A1, “DILUTABLE COMPOSITIONS AND PROCESSES FOR EXTRACTING AND REFINING POORLY WATER-SOLUBLE POLAR OILS FROM BIOMASS” (priority 2022, published 2026).

The conditions of data set [1]: cited from earlier work.
Data set [2] can be described thus: characteristic curvature (Cc), HLD framework. In kind it is physicochemical. The conditions noted are these: obtained following procedure of Nouraei et al. (WO 2022/140843).

Regarding `C=C(C)[C@@H]1CCC(C)=C[C@H]1c1c(O)cc(CCCCC)cc1O` [CBD, cannabidiol], in data set [1], the water solubility is reported as 0.0013 wt %.

Consider `C=CCc1ccc(O)c(OC)c1` [Eugenol, eugenol], for which the water solubility in data set [1] is recorded as 0.14 wt %. Consider `CCCCCc1cc(O)c2c(c1)OC(C)(C)[C@@H]1CCC(C)=C[C@@H]21` [THC, tetrahydrocannabinol], for which, in data set [2], the “characteristic curvature (Cc)” value is recorded as “+2.7”.
